Source: the NIST ThermoML archive (doi:10.1021/je1000796)

Assay: mn = molality of the nth substance listed, in mol/kg
Settings: 101 kPa, Liquid; for viscosity: Capillary tube (Ostwald / Ubbelohde) method

COC(=O)[C@H](c1ccccc1Cl)N1CCc2sccc2C1.O=S(=O)(O)O [(S)-(+)-Clopidogrel hydrogen sulfate] + CCO
Settings	mass density [kg/m3]	viscosity [mPa·s]
278.15 K, m1 = 0.001	801	1.632
278.15 K, m1 = 0.003	801.6	1.638
278.15 K, m1 = 0.005	802.3	1.645
278.15 K, m1 = 0.007	802.9	1.665
278.15 K, m1 = 0.009	803.5	1.671
278.15 K, m1 = 0.011	803.9	1.674
278.15 K, m1 = 0.013	804.5	1.68
278.15 K, m1 = 0.015	805	1.687
283.15 K, m1 = 0.001	798	1.476
283.15 K, m1 = 0.003	798.4	1.484
283.15 K, m1 = 0.005	798.9	1.489
283.15 K, m1 = 0.007	799.3	1.502
283.15 K, m1 = 0.009	799.8	1.505
283.15 K, m1 = 0.011	800.1	1.508
283.15 K, m1 = 0.013	800.6	1.514
283.15 K, m1 = 0.015	800.9	1.523
288.15 K, m1 = 0.001	794.2	1.335
288.15 K, m1 = 0.003	794.5	1.343
288.15 K, m1 = 0.005	794.9	1.346
288.15 K, m1 = 0.007	795.4	1.359
288.15 K, m1 = 0.009	795.9	1.36
288.15 K, m1 = 0.011	796.2	1.361
288.15 K, m1 = 0.013	796.5	1.365
288.15 K, m1 = 0.015	796.8	1.373
293.15 K, m1 = 0.001	790.4	1.211
293.15 K, m1 = 0.003	790.8	1.214
293.15 K, m1 = 0.005	791	1.223
293.15 K, m1 = 0.007	791.4	1.235
293.15 K, m1 = 0.009	791.8	1.236
293.15 K, m1 = 0.011	792.2	1.238
293.15 K, m1 = 0.013	792.8	1.243
293.15 K, m1 = 0.015	793	1.25
298.15 K, m1 = 0.001	786.1	1.101
298.15 K, m1 = 0.003	786.6	1.103
298.15 K, m1 = 0.005	786.9	1.109
298.15 K, m1 = 0.007	787.2	1.12
298.15 K, m1 = 0.009	787.7	1.121
298.15 K, m1 = 0.011	788	1.123
298.15 K, m1 = 0.013	788.4	1.126
298.15 K, m1 = 0.015	788.7	1.131
303.15 K, m1 = 0.001	781.2	0.9985
303.15 K, m1 = 0.003	781.8	1.003
303.15 K, m1 = 0.005	782.1	1.006
303.15 K, m1 = 0.007	782.5	1.012
303.15 K, m1 = 0.009	782.9	1.015
303.15 K, m1 = 0.011	783.2	1.017
303.15 K, m1 = 0.013	783.4	1.019
303.15 K, m1 = 0.015	783.9	1.023
308.15 K, m1 = 0.001	778.2	0.9134
308.15 K, m1 = 0.003	778.5	0.9149
308.15 K, m1 = 0.005	778.7	0.9166
308.15 K, m1 = 0.007	778.9	0.9224
308.15 K, m1 = 0.009	779.1	0.9236
308.15 K, m1 = 0.011	779.4	0.9256
308.15 K, m1 = 0.013	779.8	0.928
308.15 K, m1 = 0.015	780.2	0.9307
313.15 K, m1 = 0.001	773.7	0.8328
313.15 K, m1 = 0.003	773.9	0.8348
313.15 K, m1 = 0.005	774.2	0.8359
313.15 K, m1 = 0.007	774.5	0.8409
313.15 K, m1 = 0.009	774.8	0.8441
313.15 K, m1 = 0.011	775.2	0.8458
313.15 K, m1 = 0.013	775.7	0.8473
313.15 K, m1 = 0.015	776	0.8496

COC(=O)[C@H](c1ccccc1Cl)N1CCc2sccc2C1.O=S(=O)(O)O [(S)-(+)-Clopidogrel hydrogen sulfate] + CO
Settings	mass density [kg/m3]	viscosity [mPa·s]
278.15 K, m1 = 0.001	803.1	0.7441
278.15 K, m1 = 0.003	803.5	0.747
278.15 K, m1 = 0.005	804	0.7487
278.15 K, m1 = 0.007	804.4	0.7505
278.15 K, m1 = 0.009	804.8	0.7525
278.15 K, m1 = 0.011	805.2	0.7529
278.15 K, m1 = 0.013	805.9	0.7577
278.15 K, m1 = 0.015	806.4	0.7582
283.15 K, m1 = 0.001	799.2	0.6924
283.15 K, m1 = 0.003	799.5	0.6943
283.15 K, m1 = 0.005	800.1	0.6961
283.15 K, m1 = 0.007	800.4	0.698
283.15 K, m1 = 0.009	801.1	0.6998
283.15 K, m1 = 0.011	801.5	0.7006
283.15 K, m1 = 0.013	802	0.7039
283.15 K, m1 = 0.015	802.6	0.705
288.15 K, m1 = 0.001	795.4	0.6416
288.15 K, m1 = 0.003	795.8	0.6446
288.15 K, m1 = 0.005	796.2	0.6475
288.15 K, m1 = 0.007	796.4	0.6487
288.15 K, m1 = 0.009	797.1	0.6494
288.15 K, m1 = 0.011	797.5	0.6502
288.15 K, m1 = 0.013	798.2	0.6527
288.15 K, m1 = 0.015	799	0.6538
293.15 K, m1 = 0.001	792.3	0.6006
293.15 K, m1 = 0.003	792.5	0.6022
293.15 K, m1 = 0.005	792.9	0.6042
293.15 K, m1 = 0.007	793.3	0.6049
293.15 K, m1 = 0.009	793.6	0.606
293.15 K, m1 = 0.011	794	0.6077
293.15 K, m1 = 0.013	794.5	0.6096
293.15 K, m1 = 0.015	795.3	0.6111
298.15 K, m1 = 0.001	788.1	0.5596
298.15 K, m1 = 0.003	788.2	0.562
298.15 K, m1 = 0.005	788.4	0.5631
298.15 K, m1 = 0.007	788.7	0.5638
298.15 K, m1 = 0.009	789	0.5652
298.15 K, m1 = 0.011	789.3	0.5661
298.15 K, m1 = 0.013	790	0.5684
298.15 K, m1 = 0.015	790.8	0.5694
303.15 K, m1 = 0.001	784	0.5212
303.15 K, m1 = 0.003	784.1	0.5236
303.15 K, m1 = 0.005	784.3	0.5254
303.15 K, m1 = 0.007	784.5	0.5262
303.15 K, m1 = 0.009	785	0.5269
303.15 K, m1 = 0.011	785.3	0.5276
303.15 K, m1 = 0.013	785.8	0.5304
303.15 K, m1 = 0.015	786.6	0.5315
308.15 K, m1 = 0.001	779.7	0.487
308.15 K, m1 = 0.003	779.8	0.4898
308.15 K, m1 = 0.005	780	0.4901
308.15 K, m1 = 0.007	780.3	0.4906
308.15 K, m1 = 0.009	780.7	0.4919
308.15 K, m1 = 0.011	781.1	0.4936
308.15 K, m1 = 0.013	781.5	0.4943
308.15 K, m1 = 0.015	782.3	0.4967
313.15 K, m1 = 0.001	775.3	0.4567
313.15 K, m1 = 0.003	775.5	0.4589
313.15 K, m1 = 0.005	775.7	0.4595
313.15 K, m1 = 0.007	775.9	0.4601
313.15 K, m1 = 0.009	776	0.4604
313.15 K, m1 = 0.011	776.4	0.462
313.15 K, m1 = 0.013	777	0.4631
313.15 K, m1 = 0.015	777.8	0.4647
